# In PMC10011554, “BET inhibitor trotabresib in heavily pretreated patients with solid tumors and diffuse large B-cell lymphomas” (Nature Communications, 2023):
# Experiment: Adverse events, DLTs, MTD and RP2D in phase I study CC-90010-ST-001 (NCI CTCAE v4.03)
# Type: in vivo
# Method: The primary endpoints of the study were the safety and tolerability of trotabresib, as well as the MTD and/or RP2D of trotabresib. Safety was assessed using the National Cancer Institute Common Terminology Criteria for Adverse Events v4.03[53].
# The decision to evaluate additional subjects within a dose cohort, a higher dose cohort, intermediate dose cohorts, smaller dose increments, alternate dosing schedules, or declare an MTD will also be determined by the SRC, based on their review of clinical and laboratory safety […]
# 7.2.4. Definition of a Subject Evaluable for DLT
# After the first dose is administered in any cohort during dose escalation, subjects in each cohort […]
# more than one subject per day will be enrolled in a given dose escalation cohort.
# A subject evaluable for DLT is defined as one that: […]
# without experiencing a DLT,
# Subjects non-evaluable for DLT will be replaced. Additional subjects within any dose cohort may be enrolled at the discretion of the SRC. Intra-subject dose escalation will not be allowed during the DLT assessment period.
# 7.2.5. Definition of Maximum Tolerated Dose (MTD) […]
# of MTD is described in Section 7.2.2.
# A variable dose cohort (eg, less frequent dosing) may be evaluated to accurately determine the MTD at the discretion of the SRC.
# 7.2.6. Definition of Dose-Limiting Toxicity (DLT) […]
# used as a guide for the grading of severity of adverse events. A DLT is defined as any of the following toxicities occurring within the DLT assessment unless the event can clearly be […]
# Do se-limiting toxicities are described below:
# • Hyperglycemia meeting any of the following criteria:
# − Grade 3 or greater fasting hyperglycemia (> 250 mg/dL) lasting > 4 days despite optimal medical treatment
# (1 picture or pasted object on this page, not shown here)
# − Hyperglycemia associated with diabetic ketoacidosis or nonketotic hyperosmolar coma regardless of glucose level
# − Hyperglycemia that necessitates dose reduction despite dose interruption and resolution to ≤ grade 1 hyperglycemia within two weeks as described in […]
# • Any Grade 4 non-hematologic toxicity of any duration
# • Any non-hematologic toxicity Grade ≥ 3 EXCEPT for:
# − Grade 3 diarrhea, nausea, or vomiting of ≤ 3 days duration (with optimal medical […]
# − Grade 3 rash of the acneiform, pustular or maculopapular type which resolves to […]
# level with resumption of study drug at the same dose (with optimal medical […]
# − Grade 3 fatigue which resolves to Grade ≤ 2 within 7 days of study drug […]
# the same dose (with optimal medical management).
# • Hematological toxicities as follows:
# − Grade 4 neutropenia lasting > 7 days
# − Grade 4 thrombocytopenia lasting > 7 days, Grade ≥ 3 thrombocytopenia with clinically significant bleeding
# • Any AE, Grade ≥ 2 not specified or exempt above, unless clearly determined to be unrelated to the drug, necessitating dose-level reduction during Cycle 1.
# Isolated laboratory changes without associated clinical signs or symptoms (eg, hypomagnesemia, hypermagnesemia, hypoalbuminemia, hypophosphatemia, lymphocyte count increased or decreased) may not be included in this definition. These findings will be discussed and reviewed […]
# 7.2.7. Criteria for Dose Escalation in the Next Cohort of Subjects
# During Part A, the dose escalation criteria are described in Section 7.2.2.
# 7.2.8. Definition of Stopping Criteria
# During Part A, the dose escalation stopping rules are in Section 7.2.2.
# 7.2.9. Permitted Study Drug Adjustments
# Dose reductions are permitted in any cycle, including Cycle 1.
# • Dose reductions that occur in Cycle 1 during dose escalation will constitute DLT as […]
# [1] = part C, cycles 1 and 2, fasted state (n = 39)
# [2] = part C, cycles 1 and 2, fed state (n = 35)
smiles,measurement,setting,value
Cn1cc(-c2cc(S(C)(=O)=O)ccc2OCC2CC2)c2ccccc2c1=O [trotabresib],TRAE: Hypertension,"part B DLBCL, grade 4",0%
same,TRAE: Hyponatremia,"part B DLBCL, grade 4",0%
same,TRAE: Hypophosphatemia,"part B DLBCL, grade 4",0%
same,TRAE: Nausea,"part B DLBCL, grade 4",0%
same,TRAE: Neutropenia,"part B DLBCL, grade 4",13.04%
same,TRAE: Platelet count decreased,"part B DLBCL, grade 4",0%
same,TRAE: Stomatitis,"part B DLBCL, grade 4",0%
same,TRAE: Thrombocytopenia,"part B DLBCL, grade 4",60.87%
same,TRAE: Vomiting,"part B DLBCL, grade 4",0%
same,grade 3/4 TRAE anemia,part B R/R DLBCL (N = 23),26%
same,grade 3/4 TRAE neutropenia,part B R/R DLBCL (N = 23),26%
same,grade 3/4 TRAE thrombocytopenia,part B R/R DLBCL (N = 23),78%
same,patients who died due to TEAEs not considered related to study treatment,part B R/R DLBCL (N = 23),9%
same,patients with any-grade TRAEs,part B R/R DLBCL (N = 23),100%
same,patients with grade 3/4 TRAEs,part B R/R DLBCL (N = 23),91%
same,patients with serious TRAEs,part B R/R DLBCL (N = 23),30%
same,further grade 3 and 4 TRAEs reported in one patient each,part B R/R DLBCL population,"Grade 3 abdominal infection, blood bilirubin increased, pneumonia and grade 4 blood creatinine increased, febrile neutropenia, leukopenia, and lymphopenia"
same,"TEAE leading to death, not considered related",part C (N = 41),one
same,grade 3/4 TRAE thrombocytopenia,part C (N = 41),17%
same,patients with any-grade TRAEs,part C (N = 41),98%
same,patients with grade 3/4 TRAEs,part C (N = 41),59%
same,further grade 3 TRAEs reported in one patient each,part C population,"Grade 3 gamma-glutamyl transferase increased, hyperamylasemia, and syncope"
same,TRAE: ALT increased,"part C, any grade",21.95%
same,TRAE: Anemia,"part C, any grade",12.2%
same,TRAE: Any TRAE,"part C, any grade",97.56%
same,TRAE: Asthenia,"part C, any grade",41.46%
same,TRAE: Decreased appetite,"part C, any grade",34.15%
same,TRAE: Dehydration,"part C, any grade",0%
same,TRAE: Dermatitis acneiform,"part C, any grade",17.07%
same,TRAE: Diarrhoea,"part C, any grade",60.98%
same,TRAE: Dysgeusia,"part C, any grade",53.66%
same,TRAE: Fatigue,"part C, any grade",26.83%
same,TRAE: Hyperglycemia,"part C, any grade",19.51%
same,TRAE: Hypertension,"part C, any grade",4.88%
same,TRAE: Hyponatremia,"part C, any grade",2.44%
same,TRAE: Hypophosphatemia,"part C, any grade",4.88%
same,TRAE: Nausea,"part C, any grade",60.98%
same,TRAE: Neutropenia,"part C, any grade",12.2%
same,TRAE: Platelet count decreased,"part C, any grade",0%
same,TRAE: Stomatitis,"part C, any grade",56.1%
same,TRAE: Thrombocytopenia,"part C, any grade",63.41%
same,TRAE: Vomiting,"part C, any grade",43.9%
same,patients with any-grade TRAEs,[1],95%
same,patients with grade 3/4 TRAEs,[1],33%
same,patients with any-grade TRAEs,[2],91%
same,patients with grade 3/4 TRAEs,[2],20%
same,TRAE: ALT increased,"part C, grade 3",2.44%
same,TRAE: Anemia,"part C, grade 3",0%
same,TRAE: Any TRAE,"part C, grade 3",56.1%
same,TRAE: Asthenia,"part C, grade 3",7.32%
same,TRAE: Decreased appetite,"part C, grade 3",0%
same,TRAE: Dehydration,"part C, grade 3",0%
same,TRAE: Dermatitis acneiform,"part C, grade 3",0%
same,TRAE: Diarrhoea,"part C, grade 3",4.88%
same,TRAE: Dysgeusia,"part C, grade 3",0%
same,TRAE: Fatigue,"part C, grade 3",7.32%
same,TRAE: Hyperglycemia,"part C, grade 3",4.88%
same,TRAE: Hypertension,"part C, grade 3",2.44%
same,TRAE: Hyponatremia,"part C, grade 3",2.44%
same,TRAE: Hypophosphatemia,"part C, grade 3",4.88%
same,TRAE: Nausea,"part C, grade 3",4.88%
same,TRAE: Neutropenia,"part C, grade 3",4.88%
same,TRAE: Platelet count decreased,"part C, grade 3",0%
same,TRAE: Stomatitis,"part C, grade 3",4.88%
same,TRAE: Thrombocytopenia,"part C, grade 3",14.63%
same,TRAE: Vomiting,"part C, grade 3",2.44%
same,TRAE: ALT increased,"part C, grade 4",0%
same,TRAE: Anemia,"part C, grade 4",0%
same,TRAE: Any TRAE,"part C, grade 4",2.44%
same,TRAE: Asthenia,"part C, grade 4",0%
same,TRAE: Decreased appetite,"part C, grade 4",0%
same,TRAE: Dehydration,"part C, grade 4",0%
same,TRAE: Dermatitis acneiform,"part C, grade 4",0%
same,TRAE: Diarrhoea,"part C, grade 4",0%
same,TRAE: Dysgeusia,"part C, grade 4",0%
same,TRAE: Fatigue,"part C, grade 4",0%
same,TRAE: Hyperglycemia,"part C, grade 4",0%
same,TRAE: Hypertension,"part C, grade 4",0%
same,TRAE: Hyponatremia,"part C, grade 4",0%
same,TRAE: Hypophosphatemia,"part C, grade 4",0%
same,TRAE: Nausea,"part C, grade 4",0%
same,TRAE: Neutropenia,"part C, grade 4",0%
same,TRAE: Platelet count decreased,"part C, grade 4",0%
same,TRAE: Stomatitis,"part C, grade 4",0%
same,TRAE: Thrombocytopenia,"part C, grade 4",2.44%
same,TRAE: Vomiting,"part C, grade 4",0%
same,grade 5 TRAEs,whole study,No grade 5 TRAEs were reported
